Test results published in patent US9200171B2, “AZO compound and ink containing the compound” (MITSUBISHI CHEMICAL CORPORATION, priority 2011, dated 2015).
In brackets after ≈: the same amount, converted by molar mass.

How the values were obtained:
[1] = Solubility C (saturated concentration at 5° C.) of compound in low-polarity solvent and product εC; assay type: physicochemical; details: for ε · C: C at 5° C.; for Solubility / solubility at 24 h: at 5° C.; for solubility at 24 h: organic solvent or mixture, thermodynamic from solid
Description: The solubility C of each compound in each solvent was measured as follows.
Each compound was added to each solvent until a dissolution residue came to remain, and the mixture was subjected to an ultrasonic treatment for 30 minutes at 30° C. After the mixture was allowed to stand at 5° C. for 24 hours, centrifugal filtration was performed through a filter of 0.1 μm using a microcentrifuge (centrifugal force 5200×g). The resulting saturated solution was diluted to an appropriate concentration, and measurement of absorption spectra was performed on Hitachi spectrophotometer U-4100 using a quartz cell having an optical path length for measurement of 10 mm. The concentration of each compound was determined from a relationship between the absorbance at the absorption-maximum wavelength λmax (nm) and the molar extinction coefficient ε (L·mol^−1·cm^−1) previously measured, and the solubility C (mol·L^−1) was calculated. Moreover, the value of the product of the molar extinction coefficient ε (L·mol^−1·cm^−1) and the solubility C (mol·L^−1), εC, was determined.
Sudan Black B (manufactured by Tokyo Chemical Industry Co., Ltd.) that is a commercially available oil-soluble black dye was added to n-decane (relative permittivity 2.0, solubility in water 1 mg/L or less) until a dissolution residue came to remain, and the mixture was subjected to an ultrasonic treatment for 30 minutes at 30° C. After the mixture was allowed to stand at 5° C. for 24 hours, centrifugal filtration was performed through a filter of 0.1 μm using a microcentrifuge (centrifugal force 5200×g). The resulting saturated n-decane solution was diluted to an appropriate concentration.

[2] = Absorption-maximum wavelength λmax, molar extinction coefficient ε and solution colour in each solvent; assay type: physicochemical
Description: Each of the compounds 1 to 15 and the comparative example compounds 1 and 2 (1 mg each) was dissolved in each solvent (100 ml) and measurement of absorption spectra was performed on Hitachi spectrophotometer U-4100 using a quartz cell having an optical path length for measurement of 10 mm. From the resulting spectra, absorption-maximum wavelength λmax (nm) and molar extinction coefficient ε ([…]) were determined.

[3] = mixed solvent of n-decane/Isopar L (mixing ratio 1/1)
[4] = Isopar M, at absorption-maximum wavelength
[5] = n-decane, at absorption-maximum wavelength
[6] = tetradecane, at absorption-maximum wavelength

SMILES	ε · C ([1]; Isopar M) [cm⁻¹]	Solubility ([1]; in Isopar M) [mM]	Solubility ([1]; in n-decane) [mM]	Solubility ([1]; in tetradecane) [mM]	ε · C ([1]; n-decane) [cm⁻¹]	ε · C ([1]; tetradecane) [cm⁻¹]	Absorption-maximum wavelength ([2]; Isopar M) [nm]	Color tone ([2]; Isopar M solution)	ε [2, 4] [L/mol/cm]	Absorption-maximum wavelength ([2]; n-decane) [nm]	Color tone ([2]; n-decane solution)	ε [2, 5] [L/mol/cm]	Absorption-maximum wavelength ([2]; tetradecane) [nm]	Color tone ([2]; tetradecane solution)	ε [2, 6] [L/mol/cm]	solubility at 24 h ([1]; in n-decane) [mM]	other results
CCCCc1ccc(N=Nc2cc(C#N)c(N=Nc3cc(OC)c(N(CC(CC)CCCC)CC(CC)CCCC)cc3NC(C)=O)s2)cc1 (stereo not shown) [Compound 3]	11100	150 (≈ 105 mg/mL)	140 (≈ 98 mg/mL)	150 (≈ 105 mg/mL)	9900	10600	668	blue	72000	667	blue	73000	669	blue	73000		ε · C ([1]; Isopar L): 8200 cm⁻¹; Solubility ([1]; in Isopar L): 110 mM (≈ 77 mg/mL); Solubility ([1]; in mixed solvent of n-decane/Isopar L (mixing ratio 1/1)): 63 mM; ε · C [1, 3]: 4700 cm⁻¹; Absorption-maximum wavelength ([2]; Isopar L): 667 nm; Color tone ([2]; Isopar L solution): blue; ε ([2]; Isopar L, at absorption-maximum wavelength): 75000 L/mol/cm; Absorption-maximum wavelength [2, 3]: 667 nm; Color tone [2, 3]: blue; ε [2, 3]: 75000 L/mol/cm
CCCCC(CC)CN(CC(CC)CCCC)c1ccc(/N=N/c2sc(N=Nc3ccc(C(=O)OCC(C)C)cc3)cc2C#N)c(C(C)C)c1 (stereo not shown) [Compound 4]					1800	1300				638	blue	66000	640	blue	64000	27 (≈ 18.9 mg/mL)	solubility at 24 h ([1]; in tetradecane): 20 mM (≈ 14 mg/mL)
CCCCCc1ccc(N=Nc2cc(C#N)c(/N=N/c3cc(OC)c(N(CC(CC)CCCC)CC(CC)CCCC)cc3NC(C)=O)s2)cc1 (stereo not shown) [Compound 5]					16000					667	blue	75000				220 (≈ 157 mg/mL)	
CCCCC(CC)COC(=O)c1ccc(N=Nc2cc(C#N)c(N=Nc3ccc(N(CC(CC)CCCC)CC(CC)CCCC)cc3C)s2)cc1 (stereo not shown) [Compound 6]	10400	160 (≈ 116 mg/mL)	110 (≈ 80 mg/mL)	140 (≈ 102 mg/mL)	7000	9300	634	blue	65000	633	blue	66000	635	blue	65000		
CCCCc1ccc(N=Nc2cc(C#N)c(N=Nc3cc(OC)c(N(CC(CC)CCCC)CC(CC)CCCC)cc3C)s2)cc1 (stereo not shown) [Compound 7]			140 (≈ 92 mg/mL)		6900					640	blue	50000					
CCCCC(CC)COC(=O)c1ccc(N=Nc2cc(C#N)c(N=Nc3ccc(N(CC(CC)CCCC)CC(CC)CCCC)cc3NC(C)=O)s2)cc1 (stereo not shown) [Compound 8]	3400	44 (≈ 33.9 mg/mL)	59 (≈ 45.4 mg/mL)	44 (≈ 33.9 mg/mL)	4700	3500	638	blue	78000	637	blue	79000	639	blue	79000		
CCCCC(CC)CN(CC(CC)CCCC)c1cc(NC(C)=O)c(/N=N/c2nc(Cl)c(C=O)s2)cc1OC (stereo not shown) [Compound 9]	2000				3300	3300	618	blue	59000	617	blue	57000	618	blue	59000	58 (≈ 33.5 mg/mL)	solubility at 24 h ([1]; in Isopar M): 34 mM (≈ 19.7 mg/mL); solubility at 24 h ([1]; in tetradecane): 34 mM (≈ 19.7 mg/mL)
CCCCC(CC)COC(=O)C(C#N)=Cc1sc(N=Nc2cc(OC)c(N(CC(CC)CCCC)CC(CC)CCCC)cc2NC(C)=O)nc1Cl (stereo not shown) [Compound 10]	5500	64 (≈ 48.5 mg/mL)	93 (≈ 70.4 mg/mL)	36 (≈ 27.3 mg/mL)	5700	2000	657	blue	54000	656	blue	61000	658	blue	55000		
CCCCC(CC)CN(CC(CC)CCCC)c1ccc(N=Nc2sc(C=C(C#N)C#N)c(Cl)c2C#N)c(NC(=O)C(CC)CCCC)c1 (stereo not shown) [Compound 11]			89 (≈ 62.7 mg/mL)		5300					642	blue	60000					
CCCCC(CC)CN(CC(CC)CCCC)c1cc(NC(C)=O)c(N=Nc2sc(C(=O)OCC)c(C)c2C(=O)OCC)cc1OC (stereo not shown) [Compound 12]			250 (≈ 168 mg/mL)		12000					582	blue	46000					
CCCCc1ccc(N=Nc2cc(C#N)c(N=Nc3cc(OC)c(N(CC(CC)CCCC)CC(CC)CCCC)cc3NC(=O)CC)s2)cc1 (stereo not shown) [Compound 13]			59 (≈ 42.1 mg/mL)		4400					667	blue	76000					
CCCCOc1ccc(N=Nc2sc(N=Nc3ccc(N(CC(CC)CCCC)CC(CC)CCCC)cc3Cl)nc2C)cc1 (stereo not shown) [Compound 14]			150 (≈ 98 mg/mL)		7100					546	red	47000					
CCCCc1ccc(N=Nc2cc(C#N)c(/N=N/c3ccc(N(CC(CC)CCCC)CC(CC)CCCC)cc3C)s2)cc1 (stereo not shown) [Compound 15]					1700					613	blue	64000				27 (≈ 16.9 mg/mL)	
